Assay results from patent publication US20240033349A1, “VACCINE AND METHOD OF PROTECTION AGAINST CORONAVIRUS INFECTION” (priority 2020, published 2024).

Key:
[1] = test system: MERS-CovN3/Jordanp3 virus; parameters: species or system mice; conditions: mouse, in vivo
[2] = test system: SARS-Cov-2; conditions: human, in vivo
[3] = test system: virus of Venezuelan equine encephalomyelitis, strain Trinidad; parameters: species or system mice; conditions: mouse, in vivo
[4] = clinical examples, unlike other phthalhydrazide derivatives
[5] = test system: new coronavirus infection COVID-19; conditions: human, in vivo
[6] = test system: SARS-Cov virus (strain SARS-Covktp3); parameters: species or system mice; conditions: mouse, in vivo

Nc1cccc2c(=O)[nH][nH]c(=O)c12.[Na] [Tamerit, 5-amino-1,2,3,4-tetrahydrophthalazine-1,4-dione sodium salt]
Protection effect [1]: 50% | Control MSCT of the chest organs [2]: pronounced positive dynamics | Dynamics of clinical and laboratory data [2]: rapid positive dynamics of clinical and laboratory data | MSCT grade of lung lesion [2]: CT-2. | SARS-Cov-2 RNA test [2]: not detected. | ferritin [2]: ferritin-973.3 ng/ml | interleukin-6 [2]: 924.6 pg/mL, | Survival rate higher than in animals immunized only with VVE [3]: 25-30% | Survival rate of infected mice depending on the infecting dose [3]: 60-100% | Toxic, cumulative, mutagenic or teratogenic effects [4]: no toxic, cumulative, mutagenic or teratogenic effects | Development of early pulmonary fibrosis by computed tomography [5]: not observed in any patient | Indications for artificial lung ventilation [5]: none of the observed patients treated with Tamerit had indications for artificial lung ventilation | Infection with COVID-19 after contact with the patients [5]: No one of them got infected | Reduction of duration of clinical manifestations of the acute phase of the disease [5]: 1.5-2 weeks | Time to complete regression of symptoms [5]: 3 to 4 days | Protection effect [6]: 50%
